As usually defined, the Ki is the dissociation constant of the complex between target and ligand, obtained from inhibition or displacement. Low values mean a stronger hold on the target, high ones a looser hold on the target.

The source of these data is ChEMBL document CHEMBL1139037, “New Gly-Pro-Glu (GPE) analogues: expedite solid-phase synthesis and biological activity” (Bioorg Med Chem Lett, 2006).

The target of one assay is Glutamate NMDA receptor. In words: Displacement of L-[3H]glutamate from glutamate receptor in rat brain synaptic membrane. The class given is cell membranes.
Assay [1] addresses Glutamate NMDA receptor (Rattus norvegicus) (UniProt P35439+Q00959+Q00960+Q00961+Q62645+Q8VHN2+Q9R1M7). In words: Neuroprotective activity in rat hippocampal neurons at 100 uM. Format: functional, tissue-based. The following applies: Hippocampus.

Non-standard residues stand in square brackets, D forms with d. Residues, ends and D or L forms follow the SMILES beside them. Oic = O=C(O)[C@@H]1C[C@@H]2CCCC[C@@H]2N1; Hyp = O=C(O)[C@@H]1C[C@@H](O)CN1; Pip = O=C(O)[C@@H]1CCCCN1; Ac6c = NC1(C(=O)O)CCCCC1; Nle = CCCC[C@H](N)C(=O)O; Aze = O=C(O)[C@@H]1CCN1; Ac3c = NC1(C(=O)O)CC1

For the molecule `NCC(=O)N1C[C@H](O)C[C@H]1C(=O)N[C@@H](CCC(=O)O)C(=O)O` (H-Gly-[Hyp]-Glu-OH), the affinity on Glutamate NMDA receptor corresponds to a Ki of 9.24 µM.

`N[C@@H](Cc1ccccc1)C(=O)N1CCC[C@H]1C(=O)N[C@@H](CCC(=O)O)C(=O)O` (H-Phe-Pro-Glu-OH) displayed a Ki on Glutamate NMDA receptor of 4.85 µM. This Ki lies about 1.9-fold lower than the previous one. For `C[C@@H](N)C(=O)N1CCC[C@H]1C(=O)N[C@@H](CCC(=O)O)C(=O)O`, the Ki on Glutamate NMDA receptor amounted to 5.4 µM. `NCCCC[C@H](N)C(=O)N1CCC[C@H]1C(=O)N[C@@H](CCC(=O)O)C(=O)O` (H-Lys-Pro-Glu-OH): the Ki on Glutamate NMDA receptor was found to be 22 µM. As for `NCC(=O)NC1(C(=O)N[C@@H](CCC(=O)O)C(=O)O)CCCCC1` (H-Gly-[Ac6c]-Glu-OH), in assay [1], the Activity was 27%. The same molecule yielded a Ki at Glutamate NMDA receptor greater than 100 µM. Consider `NCC(=O)N1C[C@@H](N)C[C@H]1C(=O)N[C@@H](CCC(=O)O)C(=O)O`, for which the Ki on Glutamate NMDA receptor turned out to be 15.5 µM. For the molecule `N[C@@H](CC(=O)O)C(=O)N1CCC[C@H]1C(=O)N[C@@H](CCC(=O)O)C(=O)O` (H-Asp-Pro-Glu-OH), the affinity at Glutamate NMDA receptor, expressed as Ki, was 41.3 µM. On Glutamate NMDA receptor, `C[C@H](N)C(=O)N1CCC[C@H]1C(=O)N[C@@H](CCC(=O)O)C(=O)O` gave an inhibition constant (Ki) of 2.66 µM. Same read-out and setting: the figure for `NCC(=O)N1[C@H](C(=O)N[C@@H](CCC(=O)O)C(=O)O)C[C@@H]2CCCC[C@@H]21` (H-Gly-[Oic]-Glu-OH) is 22.4 µM; for `CCCC[C@H](N)C(=O)N1CCC[C@H]1C(=O)N[C@@H](CCC(=O)O)C(=O)O` (H-[Nle]-Pro-Glu-OH) it is 19.5 µM. As to `NCC(=O)NC1(C(=O)N[C@@H](CCC(=O)O)C(=O)O)CC1` (H-Gly-[Ac3c]-Glu-OH), in assay [1], the Activity is 27%. The molecule also registered a Ki at Glutamate NMDA receptor greater than 100 µM.

On to `NCC(=O)N1CC[C@H]1C(=O)N[C@@H](CCC(=O)O)C(=O)O` (H-Gly-[Aze]-Glu-OH), for which the Activity in assay [1] was found to be 27%. The molecule also yielded an inhibition constant Ki on Glutamate NMDA receptor greater than 100 µM. Consider `NCC(=O)N1CCCC[C@H]1C(=O)N[C@@H](CCC(=O)O)C(=O)O` (H-Gly-[Pip]-Glu-OH), for which affinity on Glutamate NMDA receptor was put at a Ki of 2.39 µM. In turn, `CC[C@H](C)[C@H](N)C(=O)N1CCC[C@H]1C(=O)N[C@@H](CCC(=O)O)C(=O)O` (H-Ile-Pro-Glu-OH) registered an inhibition constant (Ki) on Glutamate NMDA receptor greater than 100 µM. Consider `NCC(=O)N1C2CCC1(C(=O)N[C@@H](CCC(=O)O)C(=O)O)CC2`, for which the affinity on Glutamate NMDA receptor, expressed as Ki, was 0.48 µM.
